From patent publication US12371507B2, “CDCP1 antibodies and antibody drug conjugates” (Beth Israel Deaconess Medical Center, priority 2018, dated 2025) come the findings set out here.

The test system of assay [1] is H1299 cells. Nature of the assay: In vitro cytotoxicity (ATPlite viability, four days). As to conditions: Homo sapiens, NCI-H1299; H1299, NSCLC. The format is cell-based. On the procedure:
(§1) Cells were incubated in a 6-fold 9-point dilution series of respective ADCs ranging in concentration from 600 nM to 0.357225 pM. […] The mean of luminescence counts of triplicate samples were normalized to a medium only control (growth medium no ADC) to calculate percent viability.
In general terms: ATP-based viability assays read luminescence as a measure of living cells.

The subject of assay [2] is H2009 cells. The description is as above. The format is cell-based. As to conditions: Homo sapiens, NCI-H2009; H2009, lung adenocarcinoma. On the procedure:
as §1

Assay [3] deals with PC3 cells. The assay is described as above. The format is cell-based. As to conditions: Homo sapiens, PC-3; PC3, prostate cancer. On the procedure: as §1
In assay [4] the test system is PE/CA-PJ-49 cells. The description is as above. As to conditions: Homo sapiens; PE/CA-PJ-49, oral squamous cell carcinoma. The format is cell-based. On the procedure:
as §1

Assay [5] relates to SCC-25 cells. The assay is described as above. The format is cell-based. As to conditions: Homo sapiens; SCC-25, head and neck cancer. On the procedure:
as §1

Assay [6] relates to primary human aortic smooth muscle cells (HuAoSMC). The description is as above. The format is cell-based. On the procedure: as §1
The subject of assay [7] is NSCLC model PDX-NSX-15137. Description: PDX tumor growth versus standard of care. The format is in vivo, mouse. As to conditions: 22.5 mg/kg. On the procedure:
(§2) The effects of ADCs were evaluated on the in vivo growth of human tumor patient-derived xenografts (PDX) implanted into immunodeficient NOD/SCID mice. To establish initial PDX cell lines, primary human tumor resection samples were procured from clinical sites following Institutional Review Board for the Protection of Human Subjects approval and in accordance with HIPAA regulations. Tumor fragments were implanted subcutaneously in mice and animals were monitored for health status daily and for tumor growth by visual inspection twice per week. Once the tumors were palpable, measurements of tumor volume began in order to track tumor growth and estimate cell doubling time. Tumor volume was estimated using the equation V=(A*B^2)/2 where A is the long axis and B is the short axis. When tumors reached a volume of 500 mm^3 to 1,500 mm^3, they were harvested for study and for re-transplant in naïve mice as a PDX line. Tumors were mechanically dissociated into fragments for cryopreservation or additional passage in mice.
(§3) For efficacy studies, PDX tumors were aseptically harvested from passaging mice and minced into fragments approximately 2 mm in diameter. The PDX tumor fragments were transplanted into the right flank of naïve 7-10-week old NOD-SCID mice.
(§4) Tumor growth was initially followed by palpability with measurements beginning once tumor volumes reached about 30 mm^3. Studies were randomized based on tumor size once a cohort of tumor-bearing mice reached an average of 200 mm^3. Animals were then dosed by intravenous injection of test ADCs once every four days (day 1, 5, 9, and 13) for four total doses (q4d×4). For each tumor measurement taken at regular intervals the tumor volume was calculated and an average tumor size +/− the standard error of the mean (SEM) was derived per cohort of surviving animals to determine tumor growth rates. In some studies, a “waterfall plot” was derived by calculating the maximum observed percent difference in tumor volume from the starting volume post the final dose of ADC. […]

The test system of assay [8] is head and neck cancer model PDX-HNX-24715. Description: PDX tumor growth versus standard of care. The conditions noted are these: 5 mg/kg. The format is in vivo, mouse. On the procedure: as §2, §3, §4

Non-standard residues stand in square brackets, D forms with d. Residues, ends and D or L forms follow the SMILES beside them. *: point of attachment. Dolaproine = CO[C@@H]([C@@H]1CCCN1)[C@@H](C)C(=O)O; Dil = CC[C@H](C)[C@H](NC)[C@@H](CC(=O)O)OC; Doe = c1ccc(C[C@H](N*)c2nccs2)cc1; Aib = CC(C)(N)C(=O)O

For `CC[C@H](C)[C@@H]([C@@H](CC(=O)N1CCC[C@H]1[C@H](OC)[C@@H](C)C(=O)N[C@@H](Cc1ccccc1)c1nccs1)OC)N(C)C(=O)[C@@H](NC(=O)C(C)(C)N)C(C)C` [Aur0101, 2-methylalanyl-N-[(3R,4S,5S)-3-methoxy-1-{(2S)-2-[(1R,2R)-1-methoxy-2-methyl-3-oxo-3-{[(1S)-2-phenyl-1-(1,3-thiazol-2-yl)ethyl]amino}propyl]pyrrolidin-1-yl}-5-methyl-1-oxoheptan-4-yl]-N-methyl-L-valinamide] (H-[Aib]V[Dil][Dolaproine]-Doe), the IC50 was 0.202 nM in assay [1]; 0.116 nM in assay [2]; 0.0636 nM in assay [3]; 0.0373 nM in assay [4]; 0.047 nM in assay [5]; 0.176 nM in assay [6].

Regarding `CC(=O)O[C@H]1C(=O)[C@@]2(C)[C@H]([C@H](OC(=O)c3ccccc3)[C@]3(O)C[C@H](OC(=O)[C@H](O)[C@@H](NC(=O)c4ccccc4)c4ccccc4)C(C)=C1C3(C)C)[C@]1(OC(C)=O)CO[C@@H]1C[C@@H]2O` [Paclitaxel, reference compound], in assay [7], the “average tumor size at day 35” value is on record as “doubled” and the “day by which all mice had been sacrificed due to excessive tumor growth” value was not above 42 days.

With `N.N.[Cl][Pt][Cl]` [cisplatin, reference compound], the “tumor size at day 25” value in assay [8] is “more than doubled in size”.

What is called IC50 is the midpoint of a concentration-inhibition curve. Lower therefore signals inhibition by little substance.
